Experimental data from patent US20160176867A1, “MODIFIED BET-PROTEIN-INHIBITING DIHYDROQUINOXALINONES AND DIHYDROPYRIDOPYRAZINONES” (BAYER PHARMA AKTIENGESELLSCHAFT, priority 2013, published 2016).
pIC50: −log10 of the molar value.

Key:
MOLM-13 cells = assay: Cell proliferation assay (alamarBlue), MOLM-13; format: cell-based; conditions: Homo sapiens; MOLM-13 (acute myeloid leukaemia), 96 hours
Description: In accordance with the invention, the ability of the substances to inhibit cell proliferation was determined. Cell viability was determined by means of the alamarBlue® reagent (Invitrogen) in a Victor X3 Multilabel Reader (Perkin Elmer). The excitation wavelength was 530 nm and the emission wavelength […].
The MOLM-13 cells (DSMZ, ACC 554) were sown at a concentration of 4000 cells/well in 100 μl of growth medium (RPMI1640, 10% FCS) on 96-well microtitre plates.
After overnight incubation at 37° C., the fluorescence values were determined (CI values). Then the plates were treated with various substance dilutions (1E-5 M, 3E-6 M, 1E-6 M, 3E-7 M, 1E-7 M, 3E-8 M, 1E-8 M) and incubated at 37° C. over 96 hours (MOLM-13, B16F10, CHL-1 cells) or 120 hours (MOLP-8 cells). Subsequently, the fluorescence values were determined (CO values). For the data analysis, the CI values were subtracted from the CO values and the results were compared between cells which had been treated with various dilutions of the substance or only with buffer solution. The IC50 values (substance concentration needed for 50% inhibition of cell proliferation) were calculated therefrom.

[1] = molecular target: T1, BRD4 bromo domain 1 [BRD4(1)] (Homo sapiens, UniProt O60885); assay: BRD4/acetylated peptide H4 binding assay (TR-FRET), BRD4 bromo domain 1; conditions: inhibition of BRD4(1)/Ac-H4 peptide interaction
T1 construct: N-terminally His6-tagged BRD4(1) (amino acids 67-152); made in house; host or cells: E. coli
Outline: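 TR-FRET (665/620 nm ratio) measuring displacement of biotinylated tetra-acetylated H4 peptide from His6-BRD4(1) (aa 67-152, E. coli; typically 10 nM) at pH 7.5. Compound (11 concentrations, 0.1 nM–20 μM, duplicates) was preincubated 10 min at 22°C, then 1 h at 22°C and ≥3 h at 4°C; IC50 from 4-parameter fit normalized to DMSO and no-BRD4 controls.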

| Structure (SMILES) | pIC50 (MOLM-13 cells) | pIC50 [1] |
| --- | --- | --- |
| CC1C(=O)N(C)c2ccc(Nc3cccc(C(=O)NC4CCN(C)CC4)c3)nc2N1c1ccccc1 (racemic) [Example 104, 3-[(1,3-dimethyl-2-oxo-4-phenyl-1,2,3.4-tetrahydropyrido[2,3-b]pyrazin-6-yl)amino]-A-(1-methylpiperidin-4-yl)benzamide] | 5.84 | 6.02 |
| C[C@@H]1C(=O)N(C)c2ccc(Nc3cccc(C(=O)N4CCN(C)CC4)c3)nc2N1C1CCCC1 [Example 1, (3R)-4-Cyclopentyl-1,3-dimethyl-6-({3-[(4-methylpiperazin-1-yl)carbonyl]phenyl}amino)-3,4-dihydropyrido[2,3-b]pyrazin-2(1H)-one] | 6.21 | 7.17 |
| C[C@@H]1C(=O)N(C)c2ccc(Nc3cccc(C(=O)NC4CCN(C)CC4)c3)nc2N1C1CCCC1 [Example 2, 3-{[(3R)-4-Cyclopentyl-1,3-dimethyl-2-oxo-1,2,3,4-tetrahydropyrido[2,3-b]pyrazin-6-yl]amino}-N-(1-methylpiperidin-4-yl)benzamide] | 6.45 | 7.03 |
| C[C@@H]1C(=O)N(C)c2ccc(Nc3cccc(C(=O)NC4CN(C)C4)c3)nc2N1C1CCCC1 [Example 3, 3-{[(3R)-4-Cyclopentyl-1,3-dimethyl-2-oxo-1,2,3,4-tetrahydropyrido[2,3-b]pyrazin-6-yl]amino}-N-(1-methylazetidin-3-yl)benzamide] | 6.53 | 7.04 |
| C[C@@H]1C(=O)N(C)c2ccc(Nc3cccc(C(=O)NCCN(C)C)c3)nc2N1C1CCCC1 [Example 4, 3-{[(3R)-4-Cyclopentyl-1,3-dimethyl-2-oxo-1,2,3,4-tetrahydropyrido[2,3-b]pyrazin-6-yl]amino}-N-[2-(dimethylamino)ethyl]benzamide] | 6.27 | 6.84 |
| C[C@@H]1C(=O)N(C)c2ccc(Nc3cccc(C(=O)N[C@H]4CC[C@H](N5CCN(CC6CC6)CC5)CC4)c3)nc2N1C1CCCC1 [Example 5, 3-{[(3R)-4-Cyclopentyl-1,3-dimethyl-2-oxo-1,2,3,4-tetrahydropyrido[2,3-b]pyrazin-6-yl]amino}-N-{trans-4-[4-(cyclopropylmethyl)piperazin-1-yl]cyclohexyl}benzamide] | 6.49 | 7.00 |
| C[C@@H]1C(=O)N(C)c2ccc(Nc3cccc(S(=O)(=O)N(C)C)c3)nc2N1C1CCOCC1 [Example 6, 3-{[(3R)-1,3-Dimethyl-2-oxo-4-(tetrahydro-2H-pyran-4-yl)-1,2,3,4-tetrahydropyrido[2,3-b]pyrazin-6-yl]amino}-N,N-dimethylbenzenesulphonamide] | 7.28 | 7.57 |
| C[C@@H]1C(=O)N(C)c2ccc(Nc3cccc(S(=O)(=O)N(C)C)c3)cc2N1C1CCOCC1 [Example 7, 3-{[(3R)-1,3-Dimethyl-2-oxo-4-(tetrahydro-2H-pyran-4-yl)-1,2,3,4-tetrahydroguinoxalin-6-yl]amino}-N,N-dimethylbenzenesulphonamide] | 6.83 | 7.34 |
| C[C@@H]1C(=O)N(C)c2ccc(Nc3cccc(S(=O)(=O)N4CCOCC4)c3)cc2N1C1CCOCC1 [Example 8, (3R)-1,3-Dimethyl-6-{[3-(morpholin-4-ylsulphonyl)phenyl]amino}-4-(tetrahydro-2H-pyran-4-yl)-3,4-dihydroquinoxalin-2(1H)-one] | 6.57 | 7.10 |
| C[C@@H]1C(=O)N(C)c2ccc(Nc3cccc(S(=O)(=O)N4CCOCC4)c3)nc2N1C1CCOCC1 [Example 9, (3R)-1,3-Dimethyl-6-{[3-(morpholin-4-ylsulphonyl)phenyl]amino}-4-(tetrahydro-2H-pyran-4-yl)-3,4-dihydropyrido[2,3-b]pyrazin-2(1H)-one] | 7.18 | 7.55 |
| COc1ccc(CN2c3cc(Nc4cccc(S(=O)(=O)N(C)C)c4)ccc3N(C)C(=O)[C@H]2C)cc1 [Example 10, 3-{[(3R)-4-(4-Methoxybenzyl)-1,3-dimethyl-2-oxo-1,2,3,4-tetrahydroquinoxalin-6-yl]amino}-N,N-dimethylbenzenesulphonamide] | 6.63 | 6.80 |
| C[C@@H]1C(=O)N(C)c2ccc(Nc3cccc(S(=O)(=O)N4CCN(C)CC4)c3)nc2N1C1CCOCC1 [Example 12, (3R)-1,3-Dimethyl-6-({3-[(4-methylpiperazin-1-yl)sulphonyl]phenyl}amino)-4-(tetrahydro-2H-pyran-4-yl)-3,4-dihydropyrido[2,3-b]pyrazin-2(1H)-one] | 6.71 | 7.25 |
| C[C@@H]1C(=O)N(C)c2ccc(Nc3cccc(C(=O)NC4CCN(C)CC4)c3)nc2N1C1CCOCC1 [Example 13, 3-{[(3R)-1,3-Dimethyl-2-oxo-4-(tetrahydro-2H-pyran-4-yl)-1,2,3,4-tetrahydropyrido[2,3-b]pyrazin-6-yl]amino}-N-(1-methylpiperidin-4-yl)benzamide] | 6.16 | 6.49 |
| C[C@@H]1C(=O)N(C)c2ccc(Nc3cccc(C(=O)N[C@H]4CC[C@H](N5CCN(CC6CC6)CC5)CC4)c3)nc2N1C1CCOCC1 [Example 14, N-{trans-4-[4-(Cyclopropylmethyl)piperazin-1-yl]cyclohexyl}-3-{[(3R)-1,3-dimethyl-2-oxo-4-(tetrahydro-2H-pyran-4-yl)-1,2,3,4-tetrahydropyrido[2,3-b]pyrazin-6-yl]amino}benzamide] | 6.46 | 6.84 |
| C[C@@H]1C(=O)N(C)c2ccc(Nc3cccc(C(=O)N4CCN(C)CC4)c3)nc2N1C1CCOCC1 [Example 15, (3R)-1,3-Dimethyl-6-({3-[(4-methylpiperazin-1-yl)carbonyl]phenyl}amino)-4-(tetrahydro-2H-pyran-4-yl)-3,4-dihydropyrido[2,3-b]pyrazin-2(1H)-one] | 6.29 | 6.97 |
| C[C@@H]1C(=O)N(C)c2ccc(Nc3cccc(S(=O)(=O)NC4CCN(C)CC4)c3)nc2N1C1CCOCC1 [Example 20, 3-{[(3R)-1,3-Dimethyl-2-oxo-4-(tetrahydro-2H-pyran-4-yl)-1,2,3,4-tetrahydropyrido[2,3-b]pyrazin-6-yl]amino}-N-(1-methylpiperidin-4-yl)benzenesulphonamide] | 6.76 | 7.24 |
| C[C@@H]1C(=O)N(C)c2ccc(Nc3cccc(S(=O)(=O)NCCN(C)C)c3)nc2N1C1CCOCC1 [Example 21] | 6.63 | 7.32 |
| CC(C)N1c2nc(Nc3cccc(S(=O)(=O)N[C@H]4CC[C@H](N5CCN(CC6CC6)CC5)CC4)c3)ccc2N(C)C(=O)[C@H]1C [Example 34, N-{trans-4-[4-(cyclopropylmethyl)piperazin-1-yl]cyclohexyl}-3-{[(3R)-4-isopropyl-1,3-dimethyl-2-oxo-1,2,3,4-tetrahydropyrido[2,3-b]pyrazin-6-yl]amino}-benzenesulphonamide] | 7.26 | 7.64 |
| C[C@@H]1C(=O)N(C)c2ccc(Nc3cccc(S(=O)(=O)N[C@H]4CC[C@H](N5CCN(CC6CC6)CC5)CC4)c3)nc2N1C1CCOCC1 [Example 35, N-{trans-4-[4-(cyclopropylmethyl)-piperazin-1-yl]cyclohexyl}-3-{[(3R)-1,3-dimethyl-2-oxo-4-(tetrahydro-2H-pyran-4-yl)-1,2,3,4-tetrahydropyrido[2,3-b]pyrazin-6-yl]amino}-benzenesulphonamide] | 6.85 | 7.59 |
| CC(C)N1c2nc(Nc3cccc(S(=O)(=O)N4CCN(C)CC4)c3)ccc2N(C)C(=O)[C@H]1C [Example 43, (3R)-4-isopropyl-1,3-dimethyl-6-({3-[(4-methylpiperazin-1-yl)sulphonyl]phenyl}-amino)-3,4-dihydropyrido-[2,3-b]pyrazin-2(1H)-one] | 6.71 | 7.31 |
| CC(C)N1c2nc(Nc3cccc(S(=O)(=O)NC4CCN(C)CC4)c3)ccc2N(C)C(=O)[C@H]1C [Example 51, 3-{[(3R)-4-isopropyl-1,3-dimethyl-2-oxo-1,2,3,4-tetrahydropyrido[2,3-b]pyrazin-6-yl]amino}-N-(1-methylpiperidin-4-yl)benzenesulphonamide] | 7.01 | 7.11 |
| CC(C)N1c2nc(Nc3cccc(S(=O)(=O)NCCN(C)C)c3)ccc2N(C)C(=O)[C@H]1C [Example 55, N-[2-(dimethylamino)-ethyl]-3-{[(3R)-4-isopropyl-1,3-dimethyl-2-oxo-1,2,3,4-tetrahydro-pyrido[2,3-b]pyrazin-6-yl]amino}benzene-sulphonamide] | 7.11 | 6.95 |
| CC(C)N1c2nc(Nc3cccc(C(=O)N4CCN(C)CC4)c3)ccc2N(C)C(=O)[C@H]1C [Example 77, (3R)-4-isopropl-1,3-dimethyl-6-({3-[(4-methylpiperazin-1-yl)carbonyl]phenyl}-amino)-3,4-dihydro-pyrido[2,3-b]pyrazin-2(1H)-one] | 6.00 | 6.84 |
